Assay results taken from publication PMC9189845, “Structure–Activity Relationships of 8-Hydroxyquinoline-Derived Mannich Bases with Tertiary Amines Targeting Multidrug-Resistant Cancer” (Journal of Medicinal Chemistry, 2022).
Read-outs that look alike come from different tables or passages of the source.

Columns and labels:
[1] = system: A431 cells; test: PrestoBlue viability assay, A431 cells
[2] = system: MES-SA cells; test: PrestoBlue viability assay, MES-SA cells; details: Homo sapiens, MES-SA
[3] = system: A431-B1 cells; test: PrestoBlue viability assay, A431-B1 (A431-ABCB1) cells
[4] = system: MES-SA/Dx5 cells; test: PrestoBlue viability assay, MES-SA/Dx5 cells (MDR, P-gp positive); details: for IC50: Homo sapiens; for SR_TQ: selectivity ratio MES-SA vs MES-SA/Dx5, with TQ; for SR: selectivity ratio MES-SA vs MES-SA/Dx5, without TQ
[5] = Homo sapiens, A-431, 72 h, read-out: IC50 / µM A431, 72 h incubation
[6] = Homo sapiens, A-431, read-out: pIC50 A431, SARM figure (converted)
[7] = 72 h, read-out: IC50 / μM MES-SA, absence of TQ, 72 h incubation
[8] = read-out: IC50 / μM MES-SA (values in parentheses), presence of 1 μM P-gp inhibitor tariquidar (TQ)
[9] = read-out: pIC50 value MES-SA+TQ, MES-SA cells, with TQ (converted)
[10] = read-out: pIC50 value MES-SA, MES-SA cells, without TQ (converted)
[11] = 72 h, read-out: IC50 / µM A431-B1, 72 h incubation
[12] = read-out: pIC50 A431-B1, SARM figure (converted)
[13] = MES-SA/Dx5, 72 h, read-out: IC50 / μM MES-SA/Dx5, absence of TQ, 72 h incubation
[14] = MES-SA/Dx5, read-out: IC50 / μM MES-SA/Dx5 (values in parentheses), presence of 1 μM P-gp inhibitor tariquidar (TQ)
[15] = MES-SA/Dx5, read-out: pIC50 value MES-SA/Dx5 + TQ, MES-SA/Dx5 cells, with TQ (converted)
[16] = MES-SA/Dx5, read-out: pIC50 value MES-SA/Dx5, MES-SA/Dx5 cells, without TQ (converted)
[17] = read-out: IC50 / µM A431, 72 h incubation
[18] = read-out: pIC50 MES-SA, absence of TQ (converted), SARM figure
[19] = read-out: pIC50 MES-SA_TQ, presence of 1 μM TQ (converted), SARM figure

Compound	IC50 [1, 5] [µM]	IC50 [1, 6] [µM]	IC50 [2, 7] [µM]	IC50 [2, 8] [µM]	IC50 [2, 9] [µM]	IC50 [2, 10] [µM]	IC50 [3, 11] [µM]	IC50 [3, 12] [µM]	IC50 [4, 13] [µM]	IC50 [4, 14] [µM]	IC50 [4, 15] [µM]	IC50 [4, 16] [µM]	SR_TQ [4]	SR [4]	IC50 [1, 17] [µM]	IC50 ([3]; read-out: IC50 / µM A431-B1, 72 h incubation) [µM]	IC50 [2, 18] [µM]	IC50 [2, 19] [µM]	SR (MES-SA_TQ / Dx5_TQ) (values in parentheses) ([4]; fraction of IC50 in P-gp negative vs positive cells, presence of 1 μM TQ)	IC50 ([4]; MES-SA/Dx5, read-out: pIC50 Dx5_TQ, presence of 1 μM TQ (converted), SARM figure) [µM]
CCOCc1cc(CN2CCC(C)CC2)c(O)c2ncccc12 [Compound 27]	11.8 ± 4.34	11	4.09 ± 0.42	4.48 ± 0.37	4.47	4.07	2.37 ± 0.87	2.24	0.47 ± 0.05	3.05 ± 0.47	3.02	0.468	1.47	8.71	–	–	–	–	–	–
CC(=O)Nc1cc(CN2CCCCC2)c(O)c2ncccc12 [Compound 11]	> 100	–	12.4 ± 1.67	–	–	12.3	58.2 ± 0.65	–	19.4 ± 2.33	–	–	19.1	–	0.64	–	–	–	–	–	–
CCCCOCc1cc(CN2CCN(C)CC2)c(O)c2ncccc12 [Compound 10]	11.2 ± 0.37	11.2	7.23 ± 0.14	5	5.01	7.24	4.57 ± 0.2	4.57	2.12 ± 0.15	3.92	3.8	2.14	1.28	3.4	11.2 ± 0.83	–	–	–	–	–
CCOCc1cc(CN2CCCCC2)c(O)c2ncccc12 [Compound 22]	25.2 ± 8.88	23.4	8.77 ± 1.07	9.13 ± 0.32	9.12	8.71	4.17 ± 1.49	3.89	0.79 ± 0.14	7.08 ± 0.23	7.08	0.776	1.29	11.12	–	–	–	–	–	–
Oc1c(CN2CCCC2)cc(Cl)c2cccnc12 [Compound 15]	7.45 ± 0.15	7.41	3.46 ± 0.51	4.34	4.27	3.39	1.97 ± 0.25	1.95	0.3 ± 0.06	3.21	3.16	0.295	1.35	11.53	–	–	–	–	–	–
CCOC(=O)C1CCN(Cc2cc(Cl)c3cccnc3c2O)CC1 [Compound 49]	8.57 ± 2.94	8.13	1.78 ± 0.12	1.7	1.7	1.78	1.99 ± 0.25	2	0.18 ± 0.03	0.98	0.977	0.178	1.73	9.91	–	–	–	–	–	–
CCN(CC)Cc1cc(Cl)c2cccnc2c1O [Compound 5]	9.29 ± 1.55	9.33	2.97 ± 0.33	3.25	3.24	2.95	1.58 ± 1.11	1.48	0.35 ± 0.06	1.82	1.82	0.347	1.78	8.44	10 ± 4.2	1.52 ± 0.32	–	–	–	–
COCc1cc(CN2CCCCC2)c(O)c2ncccc12 [Compound 21]	22.6 ± 4.32	22.4	9.35 ± 0.61	9.56 ± 0.39	9.55	9.33	3.53 ± 0.14	3.55	0.92 ± 0.11	7.59 ± 0.08	7.59	0.912	1.26	10.19	–	–	–	–	–	–
COCc1cc(CN2CCC(C)CC2)c(O)c2ncccc12 [Compound 26]	14.5 ± 3.84	13.8	6.2 ± 0.66	6.47 ± 0.41	6.46	6.17	2.29 ± 0.28	2.29	0.58 ± 0.05	4.68 ± 0.16	4.68	0.575	1.38	10.73	–	–	–	–	–	–
CC1CCN(Cc2cc(COC(C)C)c3cccnc3c2O)CC1 [Compound 28]	7.24 ± 1.78	7.08	2.84 ± 0.35	3.02 ± 0.09	3.02	2.82	1.72 ± 0.15	1.7	0.36 ± 0.04	2.15 ± 0.22	2.14	0.355	1.41	7.96	–	–	–	–	–	–
Cc1ccccc1N1CCN(Cc2ccc(O)c3ncccc23)CC1 [Compound 58]	23.3	23.4	5.84 ± 1.02	5.78 ± 0.49	5.75	5.75	31.2	30.9	3.01 ± 0.58	3.02 ± 0.01	–	2.95	1.91	1.94	–	–	5.75	5.75	–	–
CC1CCN(Cc2cc(Cl)c3cccnc3c2O)CC1 [Compound 25]	8.93 ± 1.44	8.71	2.7 ± 0.21	2.88	2.88	2.69	1.46 ± 0.08	1.45	0.26 ± 0.04	1.59	1.58	0.257	1.82	10.37	–	–	–	–	–	–
Oc1c(CN2CCCCCC2)cc(Cl)c2cccnc12 [Compound 53]	5.57 ± 1.08	5.5	2.76 ± 0.14	2.64 ± 0.27	2.63	2.75	2.94 ± 1.69	2.57	0.33 ± 0.06	2 ± 0.19	2	0.324	1.32	8.4	–	–	–	–	–	–
CC(C)OCc1cc(CN2CCOCC2)c(O)c2ncccc12 [Compound 33]	13.2 ± 6.23	12	3.12 ± 0.6	–	–	3.09	4.76 ± 0.23	4.79	1.74 ± 0.29	–	–	1.7	–	1.79	–	–	–	–	–	–
CC(C)OCc1cc(CN2CCN(c3ccccc3)CC2)c(O)c2ncccc12 [Compound 42]	7.35 ± 2.49	6.92	1.06 ± 0.19	1.01 ± 0.16	1	1.05	1.84 ± 0.48	1.78	0.25 ± 0.05	0.66 ± 0.13	0.646	0.245	1.54	4.24	–	–	–	–	–	–
COCc1cc(CN2CCN(C)CC2)c(O)c2ncccc12 [Compound 35]	77.2 ± 11.6	75.9	24.8 ± 3.36	30.2 ± 0.64	30.2	24.5	26.49 ± 0.12	26.3	8.82 ± 1.41	27.54 ± 0.13	–	8.71	1.1	2.81	–	–	–	–	1.10	–
Oc1c(C(c2ccccn2)N2CCCC2)ccc2cccnc12 (stereo not shown) [Compound 84]	–	41.7	17.2 ± 1.86	–	–	17	–	9.55	10.2 ± 0.6	–	–	10.2	–	1.69	–	–	–	–	–	–
COCc1cc(CN2CCOCC2)c(O)c2ncccc12 [Compound 31]	34.4 ± 8.42	33.1	9.89 ± 1.52	8.97 ± 1.01	8.91	9.77	12.1 ± 1.47	12	5.64 ± 0.45	7.77 ± 0.31	7.76	5.62	1.15	1.75	–	–	–	–	–	–
Oc1c(CN2CCCC2)ccc2cccnc12 [Compound 2]	18.2 ± 1.02	16.6	4.64 ± 0.82	3.98	3.98	4.57	–	3.16	1.47 ± 0.25	2.82	2.82	1.45	1.41	3.16	17.1 ± 4.65	–	–	–	–	–
CCCOCc1cc(CN2CCN(c3ccccc3)CC2)c(O)c2ncccc12 [Compound 41]	5.69 ± 0.76	5.62	1.45 ± 0.13	1.45 ± 0.07	1.45	1.45	2.41 ± 0.37	2.4	0.24 ± 0.03	0.83 ± 0.01	0.832	0.24	1.74	6.01	–	–	1.45	1.45	–	0.955
